{
  "source": "patent US11369659B2",
  "about": "“Method of enhancing a brain or cognitive function” (Brainon Inc., priority 2015, dated 2022)",
  "key": {"[1]": {"test_system": "scopolamine-induced memory deterioration", "test": "Y maze test", "type": "in vivo, ICR mice", "details": "for spontaneous alternation (memory improving effect): male ICR mice, peptide intraperitoneally 30 minutes before scopolamine, scopolamine 30 minutes before test, compared with scopolamine-administered group", "experimental": "Scopolamine was purchased from Sigma-Aldrich (St. Louis, Mo., USA). 4-week-old male ICR mice were purchased from Korean BioLink Co. (Chungbuk, Korea). After an adaptation period of one week, the mice were used in a test and all reagents were administered intraperitoneally.\nThe mouse was placed at one end of a Y maze with a length of one branch of 30 cm, a width of 5 cm, and a height of 13 cm and the order of entry into each branch was recorded. Alternation was judged to be successful if the mouse sequentially entered three different branches. Spontaneous alternation was defined as Equation below. Spontaneous alternation (%)=the number of alternations/(total number of entries−2)×100"}, "[2]": {"test_system": "scopolamine-induced memory deterioration", "test": "step-through passive avoidance test", "type": "in vivo", "details": "male ICR mice; peptide intraperitoneally 30 minutes before scopolamine; scopolamine 30 minutes before test; retention trial after 24 hours; compared with scopolamine-administered group", "experimental": "Louis, Mo., USA). 4-week-old male ICR mice were purchased from Korean BioLink Co. (Chungbuk, Korea). After an adaptation period of one week, the mice were used in a test and all reagents were administered intraperitoneally. […] A passive avoidance test was performed in the same bright room and dark room. A floor of each room was formed in a shape in which 2-mm stainless steel rods were separated from each other at 1-cm intervals. Bright squares (20×20×20 cm) had 100-W bulbs. These squares were connected to a guillotine door. For an acquisition trial, the mouse was placed in the bright room after injection of the reagents and the door was opened after 10 seconds. When the mouse completely entered the dark room, the door was closed and electric shock was applied for 3 seconds. A retention trial was performed after 24 hours of the acquisition trial and the mouse was positioned in the bright room. A latency time of the acquisition and retention trials was measured by a time until the mouse entered the dark room of the box after the door was opened. The retention latency in the passive avoidance test represents a long-term memory function in rodents."}},
  "data": [
    {"compound": "CN1[C@@H]2C[C@@H](OC(=O)[C@H](CO)c3ccccc3)C[C@H]1[C@@H]1O[C@@H]12", "note": "[scopolamine, Scopolamine, reference compound]", "values": [
      {"measurement": "mean of spontaneous alternations", "setting": "[1]; scopolamine-injected group compared with normal saline group", "result": "significantly lowered"}
    ]},
    {"compound": "AGAG [Peptide-3]", "values": [
      {"measurement": "spontaneous alternation (memory improving effect)", "setting": "[1]", "result": "excellent effect as compared with a control group"},
      {"measurement": "retention trial latency time (memory improving effect)", "setting": "[2]", "result": "a little effect"}
    ]},
    {"compound": "GAG [Peptide-2]", "values": [
      {"measurement": "spontaneous alternation (memory improving effect)", "setting": "[1]", "result": "slight improvement"},
      {"measurement": "spontaneous alternation (memory improving effect)", "setting": "[1]; listed as sequence number 2", "result": "excellent effect as compared with a control group"},
      {"measurement": "retention trial latency time (memory improving effect)", "setting": "[2]", "result": "improved to be close to a normal group administered with saline"}
    ]}
  ]
}
